{
  "source": "patent US20070031815A1",
  "about": "“Screening method for identifying hsp90 modulators” (University of Liverpool, priority 2003, published 2007)",
  "data": [
    {"system": "yeast cells", "assay": "Entry of known Hsp90 inhibitors into yeast cells", "format": "cell-based", "conditions": "not given", "from_the_text": "(§1) Yeast have many advantages in development of screening systems or biosensors-compared to mammalian cells they are robust; easy and cheap to grow; genetically stable; and represent a reduced health risk to workers (viral contamination of cell lines becomes an issue in low cost high throughput screening). […] However, yeast are not always permeable to compounds that would be able to enter mammalian cells. […] This problem has been overcome in the past by using yeast mutants that have enhanced sensitivity to toxic chemicals. These mutations are in genes described as Pleiotrophic Drug Resistance (PDR) or Multiple Drug Resistance (MDR) gene. One class of PDR genes are those affecting the ergosterol balance in the yeast membrane. Mammalian cells have cholesterol in the plasma membrane while yeast have ergosterol. Mutations in the gene ERG6 (ISE1) cause cells to become sensitive to a range of lipophilic drugs. Another class of mutations affect active drug uptake or efflux, for example mutations to the ATP dependent efflux pump PDR5 increase drug sensitivity. A combination of mutations from these different pathways further increases sensitivity. In addition to increasing permeability of the plasma membrane and reducing efflux better drug entry can also be brought about by changing the cell wall structure, this can also increase osmotic sensitivity, which facilitates release of proteins. Mutation of the GDP-mannose phosphorylase (SRB1) interferes with the glycosylation of cell wall proteins, this increases drug and osmotic sensitivity. Hsp90 itself is also involved in the maintenance of cell wall integrity via its functional interaction with Ste11. Ste11 is a MAPKKK that normally activates the MAPKK Pbs2 which in turn activates the Hog-1 transcriptional activator. Hog-1 activation modifies the cell wall in response to osmotic shock, disruption of Hog-1 causes drug and osmotic sensitivity. There are also dominant mutations which increase sensitivity to cytotoxic agents, such as ISE2 which increases sensitivity to a range of topoisomerase II inhibitors.", "values": [
      {"smiles": "CO[C@H]1[C@@H](OC)C[C@H](C)[C@@H](OC)C2=CC(=O)C=C(NC(=O)/C(C)=C/C=C\\[C@H](C)[C@@H](OC(N)=O)/C(C)=C/[C@@H]1C)C2=O", "note": "[Macbecin, Macbecin I]", "entry into yeast cells": "enter yeast cells easily"}
    ]},
    {"system": "yeast cells", "assay": "Entry of known Hsp90 inhibitors into yeast cells", "format": "cell-based", "conditions": "yeast permeability", "from_the_text": "as §1", "values": [
      {"smiles": "COC1=C2C[C@@H](C)C[C@H](OC)[C@H](O)[C@@H](C)/C=C(\\C)[C@H](OC(N)=O)[C@@H](OC)/C=C\\C=C(/C)C(=O)NC(=CC1=O)C2=O", "note": "[GA, Geldanamycin]", "entry into yeast cells": "enter yeast cells easily"},
      {"smiles": "CO[C@H]1[C@@H](OC)C[C@H](C)[C@@H](OC)C2=CC(=O)C=C(NC(=O)/C(C)=C/C=C\\[C@H](OC)[C@@H](OC(N)=O)/C(C)=C/[C@@H]1C)C2=O", "note": "[Herbimycin]", "entry into yeast cells": "enter yeast cells easily"},
      {"smiles": "C[C@@H]1C[C@H]2O[C@@H]2/C=C\\C=C\\C(=O)Cc2c(Cl)c(O)cc(O)c2C(=O)O1", "note": "[Radicicol]", "entry into yeast cells": "enter yeast cells easily"},
      {"smiles": "C=CCNC1=C2C[C@@H](C)C[C@H](OC)[C@H](O)[C@@H](C)/C=C(\\C)[C@H](OC(N)=O)[C@@H](OC)/C=C\\C=C(/C)C(=O)NC(=CC1=O)C2=O", "note": "[Compound 17-AAG, 17-allylamino demethoxy geldanamycin]", "entry into yeast cells": "enter yeast cells easily"},
      {"smiles": "CO[C@@H]1[C@@H](OC(N)=O)[C@@H](O)[C@H](Oc2ccc3c(O)c(NC(=O)c4ccc(O)c(CC=C(C)C)c4)c(=O)oc3c2C)OC1(C)C", "note": "[Novobiocin]", "entry into yeast cells": "enter yeast cells easily"}
    ]}
  ]
}
